Where two headings read alike, the source gives them in different places.
Tests used:
Type in all cases: in vivo
Apis mellifera [1] = details: 150 g a.s./ha
Text: (§1) Der Test wurde gemäß EPPO (European Plant Protection Organisation) Leitlinie 170 wie folgt durchgeführt:
Die Mortalität von Arbeiterbienen vor dem Bienenstock wird mittels einer Falle für tote Bienen (dead bee trap) bestimmt. Die Falle besteht aus Maschendraht und ist vor dem Bienenstock angebracht. Einzelne, lebende Bienen können die Maschen des Drahts passieren, der Transport toter Bienen durch die Maschen ist nicht möglich, weswegen tote Bienen sich in der Falle ansammeln. Tabelle 1 (siehe auch Figur 1)

Apis mellifera [2] = assay: Tunnel test / spray application / bees: acute mortality of pupae in front of the hive; details: for Zahl toter Puppen: 150 g a.s./ha
Text: as §1
Tabelle 2 (siehe auch Figur 2)

Apis mellifera [3] = assay: Tunnel test / spray application / bees: foraging activity; details: 150 g a.s./ha
Text: as §1
Während einer Minute werden in einem abgegrenzten Bereich von 2 x 1 m^2 die Bienen gezählt, die auf Blüten absitzen. Tabelle 3 (siehe auch Figur 3)

Apis mellifera [4] = assay: Tunnel test / spray application / bees: brood development (share of comb cells); details: 150 g a.s./ha
Text: as §1
Über alle Waben eines Bienenstocks wird der jeweilige Anteil an Zellen bestimmt, der durch Pollen, Nektar, Eier, Larven oder Puppen belegt ist bzw. leer ist. […]

Apis mellifera [5] = assay: Greenhouse test / residue test / bees: mortality after contact with treated tomato leaves; details: 100 g a.s./ha
Text: Der Versuch wurde wie folgt durchgeführt:
Die Tomatenpflanzen wurden im Gewächshaus mit den Testverbindungen bzw. der Referenzsubstanz behandelt (Spritzappliaktion, 3 fache Wiederholung). 1, 3, 6 und 13 Tage nach Behandlung (DAA) wurden Blätter entnommen (je 5 Blattproben pro Behandlung) und in Boxen gegeben. In jede Box wurden 10 Bienen transferiert und die Boxen wurden unter kontrollierten Bedingungen aufbewahrt, wobei die Bienen mit Zuckerlösung gefüttert wurden. 24, 48 und 72 nach Transfer der Bienen wurde deren Mortalität bestimmt. Tabelle 9 (siehe auch Figur 9)

[6] = leaves taken 1 Tag nach Behandlung, 24 h contact
[7] = leaves taken 1 Tag nach Behandlung, 48 h contact
[8] = leaves taken 1 Tag nach Behandlung, 72 h contact
[9] = leaves taken 3 Tage nach Behandlung, 24 h contact
[10] = leaves taken 3 Tage nach Behandlung, 48 h contact
[11] = leaves taken 3 Tage nach Behandlung, 72 h contact
[12] = leaves taken 6 Tage nach Behandlung, 24 h contact
[13] = leaves taken 6 Tage nach Behandlung, 48 h contact
[14] = leaves taken 6 Tage nach Behandlung, 72 h contact
[15] = leaves taken 13 Tage nach Behandlung, 24 h contact
[16] = leaves taken 13 Tage nach Behandlung, 48 h contact
[17] = leaves taken 13 Tage nach Behandlung, 72 h contact

SMILES: CCOC(=O)NCCOc1ccc(Oc2ccccc2)cc1 [Fenoxycarb, reference compound]
- Zahl toter Arbeiterbienen (Apis mellifera [1]; 0 DAA b (15:15 Uhr)): 0
- Zahl toter Arbeiterbienen (Apis mellifera [1]; 0 DAA c (17:15 Uhr)): 0
- Zahl toter Arbeiterbienen (Apis mellifera [1]; 1 DAA): 1,3
- Zahl toter Arbeiterbienen (Apis mellifera [1]; 2 DAA): 0,7
- Zahl toter Arbeiterbienen (Apis mellifera [1]; 3 DAA): 0
- Zahl toter Arbeiterbienen (Apis mellifera [1]; 4 DAA): 2
- Zahl toter Arbeiterbienen (Apis mellifera [1]; 5 DAA): 1,3
- Zahl toter Arbeiterbienen (Apis mellifera [1]; 6 DAA): 3
- Zahl toter Arbeiterbienen (Apis mellifera [1]; 11 DAA): 1
- Zahl toter Arbeiterbienen (Apis mellifera [1]; -3 DAA (before application)): 1
- Zahl toter Puppen (Apis mellifera [2]; 0 DAA c (17:15 Uhr)): 0
- Zahl toter Puppen (Apis mellifera [2]; 1 DAA): 0
- Zahl toter Puppen (Apis mellifera [2]; 2 DAA): 0
- Zahl toter Puppen (Apis mellifera [2]; 5 DAA): 0
- Zahl toter Puppen (Apis mellifera [2]; 6 DAA): 0
- Zahl toter Puppen (Apis mellifera [2]; 11 DAA): 9
- Zahl toter Puppen (Apis mellifera [2]; 14 DAA): 16,7
- Zahl toter Puppen (Apis mellifera [2]; 18 DAA): 26,7
- Zahl toter Puppen (Apis mellifera [2]; 21 DAA): 0
- Zahl toter Puppen (Apis mellifera [2]; 25 DAA): 1
- Zahl toter Puppen (Apis mellifera [2]; -3 DAA (before application)): 0
- Mortalität von Puppen vor dem Bienenstock (Apis mellifera [2]; result in words, tunnel test, spray, I-5 75 und 150 g a.s./ha, Fenoxycarb 150 g a.s./ha): 11-18 Tage nach Applikation eine Mortalität von Puppen
- Aktivität der Nahrungssuche, Zahl der Bienen / min / m^2 (Apis mellifera [3]; 0 DAA a (09:30 Uhr)): 26,2 Bienen / min / m^2
- Aktivität der Nahrungssuche, Zahl der Bienen / min / m^2 (Apis mellifera [3]; 0 DAA c (14:15 Uhr)): 38,7 Bienen / min / m^2
- Aktivität der Nahrungssuche, Zahl der Bienen / min / m^2 (Apis mellifera [3]; 0 DAA e (17:15 Uhr)): 46 Bienen / min / m^2
- Aktivität der Nahrungssuche, Zahl der Bienen / min / m^2 (Apis mellifera [3]; 1 DAA b (15:30 Uhr)): 19 Bienen / min / m^2
- Aktivität der Nahrungssuche, Zahl der Bienen / min / m^2 (Apis mellifera [3]; 2 DAA): 32,3 Bienen / min / m^2
- Aktivität der Nahrungssuche, Zahl der Bienen / min / m^2 (Apis mellifera [3]; 3 DAA): 38,7 Bienen / min / m^2
- Aktivität der Nahrungssuche, Zahl der Bienen / min / m^2 (Apis mellifera [3]; 6 DAA): 38,8 Bienen / min / m^2
- Aktivität der Nahrungssuche, Zahl der Bienen / min / m^2 (Apis mellifera [3]; -1 DAA (before application)): 27,3 Bienen / min / m^2
- Aktivität der Nahrungssuche, Zahl der Bienen / min / m^2 (Apis mellifera [3]; -2 DAA (before application)): 33,7 Bienen / min / m^2
- Aktivität der Nahrungssuche, Zahl der Bienen / min / m^2 (Apis mellifera [3]; -3 DAA (before application)): 25 Bienen / min / m^2
- Anteil an Zellen: Eier (Apis mellifera [4]; 1 Tag vor Applikation): 12,5%
- Anteil an Zellen: Larven (Apis mellifera [4]; 1 Tag vor Applikation): 14,2%
- Anteil an Zellen: Leer (Apis mellifera [4]; 1 Tag vor Applikation): 25,8%
- Anteil an Zellen: Nektar (Apis mellifera [4]; 1 Tag vor Applikation): 13,3%
- Anteil an Zellen: Pollen (Apis mellifera [4]; 1 Tag vor Applikation): 2,2%
- Anteil an Zellen: Puppen (Apis mellifera [4]; 1 Tag vor Applikation): 31,9%
- Anteil an Zellen: Eier (Apis mellifera [4]; 6 Tage nach Applikation): 12,2%
- Anteil an Zellen: Larven (Apis mellifera [4]; 6 Tage nach Applikation): 0,3%
- Anteil an Zellen: Leer (Apis mellifera [4]; 6 Tage nach Applikation): 29,7%
- Anteil an Zellen: Nektar (Apis mellifera [4]; 6 Tage nach Applikation): 20,8%
- Anteil an Zellen: Pollen (Apis mellifera [4]; 6 Tage nach Applikation): 6,7%
- Anteil an Zellen: Puppen (Apis mellifera [4]; 6 Tage nach Applikation): 30,3%
- Anteil an Zellen: Eier (Apis mellifera [4]; 14 Tage nach Applikation): 18,3%
- Anteil an Zellen: Larven (Apis mellifera [4]; 14 Tage nach Applikation): 10,6%
- Anteil an Zellen: Leer (Apis mellifera [4]; 14 Tage nach Applikation): 52,2%
- Anteil an Zellen: Nektar (Apis mellifera [4]; 14 Tage nach Applikation): 9,2%
- Anteil an Zellen: Pollen (Apis mellifera [4]; 14 Tage nach Applikation): 5,3%
- Anteil an Zellen: Puppen (Apis mellifera [4]; 14 Tage nach Applikation): 4,4%
- Anteil an Zellen: Eier (Apis mellifera [4]; 27 Tage nach Applikation): 18,6%
- Anteil an Zellen: Larven (Apis mellifera [4]; 27 Tage nach Applikation): 7,2%
- Anteil an Zellen: Leer (Apis mellifera [4]; 27 Tage nach Applikation): 23,1%
- Anteil an Zellen: Nektar (Apis mellifera [4]; 27 Tage nach Applikation): 21,9%
- Anteil an Zellen: Pollen (Apis mellifera [4]; 27 Tage nach Applikation): 4,7%
- Anteil an Zellen: Puppen (Apis mellifera [4]; 27 Tage nach Applikation): 24,4%
- Zahl der Larven (Apis mellifera [4]; result in words, 6 Tage nach Applikation): starke Abnahme
- Zahl der Puppen (Apis mellifera [4]; result in words, 14 Tage nach Applikation): starke Abnahme

SMILES: O=C1C=C(N(Cc2ccc(Cl)nc2)C2CC2)CO1 [I-9, 4-{[(6-Chlorpyrid-3-yl)methyl](cyclopropyl)amino}furan-2(5H)-on]
- Mortalität (Apis mellifera [5]; [6]): 6%
- Mortalität (Apis mellifera [5]; [7]): 9%
- Mortalität (Apis mellifera [5]; [8]): 13%
- Mortalität (Apis mellifera [5]; [9]): 2%
- Mortalität (Apis mellifera [5]; [10]): 3%
- Mortalität (Apis mellifera [5]; [11]): 4%
- Mortalität (Apis mellifera [5]; [12]): 1%
- Mortalität (Apis mellifera [5]; [13]): 2%
- Mortalität (Apis mellifera [5]; [14]): 5%
- Mortalität (Apis mellifera [5]; [15]): 8,7%
- Mortalität (Apis mellifera [5]; [16]): 11%
- Mortalität (Apis mellifera [5]; [17]): 12%

SMILES: CN(Cc1ccc(Cl)nc1)C1=CC(=O)OC1 [I-10, 4-{[(6-Chlorpyrid-3-yl)methyl](methyl)amino}furan-2(5H)-on]
- Mortalität (Apis mellifera [5]; [6]): 5%
- Mortalität (Apis mellifera [5]; [7]): 5%
- Mortalität (Apis mellifera [5]; [8]): 6%
- Mortalität (Apis mellifera [5]; [9]): 3%
- Mortalität (Apis mellifera [5]; [10]): 7%
- Mortalität (Apis mellifera [5]; [11]): 8%
- Mortalität (Apis mellifera [5]; [12]): 3%
- Mortalität (Apis mellifera [5]; [13]): 4%
- Mortalität (Apis mellifera [5]; [14]): 7%
- Mortalität (Apis mellifera [5]; [15]): 6,7%
- Mortalität (Apis mellifera [5]; [16]): 6,7%
- Mortalität (Apis mellifera [5]; [17]): 6,7%

From patent EP2193713A1, “Method for fighting animal pests without damaging pollinating insects” (Bayer CropScience AG, priority 2008, dated 2010)
